# Test results from patent US12285434B2, “Therapeutic, preventive, or improvement agent for inflammatory disease and allergic disease” (The University of Tokyo, priority 2018, dated 2025).
# Tests used:
# [1] = tested on: acute lung injury model mice; assay: Hydrochloric acid-induced acute lung injury (pneumonia, pulmonary edema); format: in vivo, mouse; settings: 50 μg/kg intraperitoneally 5 minutes before and 3 hours after HCl
# Procedure: Fifty (50) μL of 0.1 N hydrochloric acid was nasally administered to 57BL/6 strain mice (male, 8 to 12 weeks old) to prepare acute lung injury model mice (hereinafter, sometimes referred to as “pneumonia group”). On the other hand, 50 μg/kg 5,6-DiHETE (manufactured by Cayman Chemical) was intraperitoneally administered 5 minutes before and 3 hours after the nasal administration of hydrochloric acid (hereinafter, sometimes referred to as “5,6-DiHETE-administered group”).
# The lungs of the pneumonia group and the 5,6-DiHETE-administered group were collected 6 hours after the nasal administration of hydrochloric acid, fixed in 4% paraformaldehyde for 24 hours, embedded in paraffin, and cut into 2 μm-thick sections. Hematoxylin staining and eosin staining of these sections were performed according to a conventional method.
# The wet/dry weight ratio was used as an index of pulmonary edema (Rachmilewitz D. et al., Gastroenterology, 97: 326-337(1989)). Specifically, 6 hours after the nasal administration of hydrochloric acid, the lungs were collected and the wet weights were measured. The lungs were then dried at 60° C. for 24 hours, and, thereafter, the dry weight was measured. In addition, the ventilatory capacity of the lungs was evaluated as an index of pneumonia using arterial blood oxygen saturations.
# [2] = tested on: eNOS phosphorylation in HUVECs; assay: Histamine-induced eNOS phosphorylation (Western blot); format: cell-based, human; settings: pretreatment 0.1 μM, 15 minutes; histamine 10 μM, 5 minutes
# Procedure: In Examples 4 to 6, human umbilical vein endothelial cells (hereinafter, sometimes referred to as “HUVECs”, manufactured by Lonza) were cultured in EGM-2 (manufactured by Lonza K.K.). These cells (passages 4 to 9) were used for experiments after 4-hour starvation in EBM-2 (manufactured by Lonza K.K.) containing 2% FBS.
# To the plates on which the HUVECs were cultured, 5,6-DiHETE was added so as to attain 100 nM, and, 15 minutes after the addition, histamine was added so as to attain 10 μM. Then, in order to measure the protein masses of phosphorylated eNOS and eNOS, 5 minutes after the administration of histamine, the HUVECs were lysed with a modified lysis buffer (50 mM Tris-HCl (pH 7.4), 0.1 mM EDTA, 0.1 mM EGTA, 1% NP-40 substitute, 0.1% SDS, 0.1% deoxycholic acid, 50 mM NaF, 1 mM Na3VO4, and 10 mM β-glycerophosphate). […] Bands were detected and quantified using an Odyssey system (manufactured by LI-COR Biosciences) (FIG. 5B). Specifically, the bands of phosphorylated eNOS and eNOS were detected by scanning (800 nm) with the Odyssey system, and their intensity (band brightness) was quantified. The phosphorylation level of eNOS (ratio of phosphorylated eNOS to eNOS) was quantified and evaluated by a relative value obtained by dividing the band brightness of phosphorylated eNOS by the band brightness of eNOS. […]
# [3] = tested on: DSS-induced colitis model mice; assay: DSS-induced colitis: histologic score and colon edema (wet/dry weight ratio); format: in vivo, mouse (C57BL/6); settings: Day 14; 50 μg/kg/day intraperitoneally on Days 9, 11 and 13
# Text: C57BL/6 strain mice (male, 8 to 12 weeks old) were fed with water containing 2% dextran sodium sulfate (manufactured by MP Bio, hereinafter sometimes referred to as “DSS”) for 4 days to prepare colitis model mice (hereinafter, sometimes referred to as “colitis group” in Examples 7 to 10). The mice taken with DSS for 4 days were fed with normal water from Day 5. The DSS intake start date was defined as Day 1 of the test, and the day before the DSS intake start date was defined as Day 0 of the test. In addition, a group in which C57BL/6 strain mice (male, 8 to 12 weeks old) were fed with normal water was defined as a “healthy group” (the same applies to Examples 8 to 10).
# To investigate the role of 5,6-DiHETE in the healing phase, the colitis model mice prepared in Example 7(1) were intraperitoneally injected with 5,6-DiHETE (manufactured by Cayman Chemical) (50 μg/kg/day) or HC-067047 (manufactured by Cayman Chemical) (1 mg/kg/day) on Days 9, 11 and 13 of the test (hereinafter, sometimes referred to as “5,6-DiHETE-administered group” and “HC-067047-administered group,” respectively, in Examples 9 and 10). HC-067047 is known to inhibit an increase of calcium ion concentration in endothelial cells.
# Distal colon sections on Day 14 of the test in the healthy group, colitis group, 5,6-DiHETE-administered group and HC-067047-administered group were fixed in 4% paraformaldehyde for 24 hours, embedded in paraffin and cut into 2 μm-thick sections. Hematoxylin staining and eosin staining of these sections were performed according to a conventional method. The histologic score was then decided according to the description of Kruschewski M. et al., Digestive Diseases and Sciences, 46: 2336-2343 (2001) to evaluate the colitis severity.
# The wet/dry weight ratio was used as an index of colon edema (Rachmilewitz D. et al., Gastroenterology, 97: 326-337(1989)). Specifically, the distal colon was collected, and the wet weight was measured. The distal colon was then dried at 60 C for 24 hours, and, thereafter, the dry weight was measured.
compound,measurement,setting,value
"CC/C=C\C/C=C\C/C=C\C/C=C\C[C@@H](O)[C@@H](O)CCCC(=O)O (racemic) [5,6-DiHETE, (±) 5,6-dihydroxy-8Z,11Z,14Z,17Z-eicosatetraenoic acid]",decrease in arterial blood oxygen saturation,[1],suppressed
same,epithelial damage and neutrophil tissue infiltration (HE-stained lung),[1]; 6 hours,suppressed
same,moisture content of the lung tissue (wet/dry weight ratio),[1]; 6 hours,significantly reduced except one case
same,reddishness of lung tissue (appearance),[1]; 6 hours,improved
same,histamine-induced phosphorylation of eNOS (serine 1177),[2],significantly reduced histamine-induced phosphorylation of eNOS
same,"colon edema, wet/dry weight ratio",[3],5.2±0.2
same,histologic score of colitis,[3],3.3±0.5
